How the values were obtained:
Assay type in all cases: cell-based, murine
[1] = tested on: iNOS; experiment: iNOS activity by Griess assay (NO2 release), IFN-γ-stimulated N9 microglia; details: N9 cells, IFN-γ 200 u ml, 48 h, dexamethasone 500 nM
Procedure: Tranilast was a generous gift of Kissei Pharmaceuticals (Nagano, Japan). Murine recombinant IFN-γ was purchased from Boehringer (Mannheim, Germany). Dexamethasone (DEX) was obtained from Sigma (Deisenhofen, Germany). N9 murine microglial cells were a kind gift from P. Ricciardi-Castagnoli (Milano, Italy) (Righi, M., Mori, L., De Libero, G., Sironi, M., Biondi, A., Mantovani, A., Donini, S. D. and Ricciardi-Castagnoli, P. Eur J Immunol 19(8):1443-1448, 1989). The cells were cultured in Dulbecco's modified Eagle's medium (DMEM) supplemented with 10% foetal calf serum (FCS), 2 mM glutamine and penicillin ([…])/streptomycin (100 μg ml), and maintained at 37° C. in an atmosphere of 5% CO2. Viability was assessed by crystal violet staining.
iNOS activity was assessed by the Griess assay as described elsewhere (Rieger, J., Stander, M., Loschmann, P. A., Heneka, M., Dichgans, J., Klockgether, T. and Weller, M., Oncogene, 17:2323-2332, 1998). Briefly, conditioned supernatant (100 μl) was incubated with an equal volume of 1% sulphanilamide/0.1% naphthyl ethylene diamine dihydrochloride/2.5% H3PO4 (Griess reagent) (Green, L. C., Wagner, D. A., Glogowski, J., Skipper, P. I., Wishnok, J. S, and Tannenbaum, S. R., Anal. Biochem., 126:131-138, 1982), incubated for 5 min at room temperature, and the absorbance at […] determined. Solutions of NaNO2 diluted in DMEM served as standards. The absorbance readings resulting from DMEM alone were subtracted from the sample values. Cell density was assessed using crystal violet staining to control for differences in cell proliferation. iNOS activity is thus expressed here as NO2 accumulated per 48 h per 10^5 cells.

[2] = tested on: iNOS; experiment: iNOS activity by Griess assay (nitrite formation), LPS-stimulated N9 microglia; details: N9 cells
Excerpt: (§1) TNL was a generous gift of Kissei Pharmaceuticals, LPC (Escherichia coli, 0127:BS), phorbol 12-myristate 13-acetate (PMA) and dexamethasone (DEX) were obtained from Sigma, BAY 11-7082 (BAY), NF-κB SN50 inhibitory peptide (SN50), GF 109203X (GFX) and rottlerin (ROT) were purchased from Biomol. PD098059 (PD) was obtained from Calbiochem. Purified murine interferon-γ (IFN-γ) was purchased from Roche Diagnostics. N9 murine microglial cells were a kind gift from P. Ricciardi-Castagnoli (Righi, M. et al. 1989 supra). Cells were cultured in Dulbecco's modified Eagle's medium (DMEM) supplemented with 10% fetal calf serum (FCS), 2 mM glutamine, penicillin (100 unit/mL) and streptomycin (100 μg/mL) and maintained at 37° in an atmosphere of 5% CO2. Viability was assessed by crystal violet staining.
iNOS activity was assessed by the Griess assay (Platten, M., Wick, W., Wischhusen, J. and Weller, M. Br J Pharmacol 134(6):1279-1284, 2001). Briefly, conditioned supernatant was incubated with an equal volume of Griess reagent containing 1% sulphanilamide, 0.1% naphthylethylenediamine dihydrochloride and 2.5% H3PO4 (Green, L. C., Wagner, D. A., Glogowski, J., Skipper, P. I., Wishnok, J. S, and Tannenbaum, S. R. Anal. Biochem., 126:131-138, 1982) for 5 min. at room temperature. The absorbance was measured at 546 nm. NaNO2 diluted in DMEM served as a standard. To control for cell number, the cells were stained with crystal violet. iNOS activity is expressed as nitrite accumulated in 48 hr/10^5 cells.

[3] = tested on: iNOS; experiment: iNOS protein immunoblot, LPS-stimulated N9 microglia
Excerpt: as §1
For the preparation of whole cell lysates, the cells were lysed in 0.1 M Tris-HCl (pH 7.2) containing 0.1% NP40, 0.1 mM EDTA and 5 μg/mL phenylmethylsulphonyl fluoride. Twenty micrograms protein was separated by 10-12% SDS-PAGE and electroblotted on nitrocellulose membrane. Equal loading was controlled by Ponceau S staining. Immunodetection was performed using the following antibodies: anti-iNOS rabbit polyclonal antibody (1:1000, Cayman), antiphospho-IκBα mouse monoclonal antibody (1:1000), anti-PKCδ mouse monoclonal antibody (1:2000), antiphospho-MARCKS rabbit polyclonal antibody (1:1000), antiphospho-ERK-1/2, antiphospho-AKT, antiphospho-p38 mouse monoclonal antibodies (1:2000), anti-ERK-1/2, anti-AKT mouse monoclonal antibodies (1:500, all from Signal Transduction Laboratories). Bands were visualized using horseradish peroxidase-conjugated anti-rabbit IgG (1:4000 SantaCruz) or anti-mouse IgG (1:4000, Amersham).

[4] = tested on: PKCδ; experiment: PKCδ immunoblot after long-term PMA in N9 microglia; details: N9 cells, PMA 100 nM, 24 hr treatment, data not shown
Excerpt: as §1
(§2) For the preparation of whole cell lysates, the cells were lysed in 0.1 M Tris-HCl (pH 7.2) containing 0.1% NP40, 0.1 mM EDTA and 5 μg/mL phenylmethylsulphonyl fluoride. Twenty micrograms protein was separated by 10-12% SDS-PAGE and electroblotted on nitrocellulose membrane. Equal loading was controlled by Ponceau S staining. […]

[5] = tested on: ERK-1/2; experiment: phospho-ERK-1/2 immunoblot after PKC depletion, LPS-stimulated N9 microglia; details: N9 cells, prolonged pretreatment with PMA 100 nM 24 hr, then LPS 10 μg/mL
Excerpt: as §1, §2

With C[C@@H]1C[C@H]2[C@@H]3CCC4=CC(=O)C=C[C@]4(C)[C@@]3(F)[C@@H](O)C[C@]2(C)[C@@]1(O)C(=O)CO [dexamethasone] the “reduction of the amount of NO2 (Griess assay)” value [1] was 75%.

COc1cccc(-c2cc(=O)c3ccccc3o2)c1N [PD] was tested, and the LPS-mediated nitrite formation ([2]; LPS, 40 μM PD, vehicle-treated cells 16.6±0.3) was 10.7±0.4 μM/10^4 cells/48 hr.

With Cc1ccc(S(=O)(=O)/C=C/C#N)cc1 [BAY] the “LPS-stimulated NO release” value ([2]; LPS, BAY 20 μM, vehicle-treated cells 14.6±1.0) was 11.1±0.7 μM/10^4 cells/48 hr.

In the case of CC(=O)c1c(O)c(C)c(O)c(Cc2c(O)c3c(c(C(=O)/C=C/c4ccccc4)c2O)OC(C)(C)C=C3)c1O [ROT, rottlerin], the “iNOS protein accumulation after LPS” value ([3]; N9 cells, LPS 10 μg/mL 24 hr, ROT at concentrations as low as 5 μM) is reported as “strongly inhibited”.

For CN(C)CCCn1cc(C2=C(c3c[nH]c4ccccc34)C(=O)NC2=O)c2ccccc21 [GFX], the “PMA superinduction of iNOS protein in LPS-stimulated cells” value ([3]; PMA 100 nM 15 min, LPS 10 μg/mL 24 hr, GFX 2 μM) was “abolished”.

In the case of CCCCCCCCCCCCCC(=O)O[C@@H]1[C@@H](C)[C@@]2(O)[C@@H](C=C(CO)C[C@]3(O)C(=O)C(C)=C[C@@H]23)[C@@H]2C(C)(C)[C@]12OC(C)=O [PMA, phorbol 12-myristate 13-acetate], the “reduction of iNOS protein (densitometry)” value ([3]; N9 cells, 24-hr exposure to PMA 100 nM, then LPS 10 μg/mL for 24 hr) is reported as 80%, the “LPS-mediated iNOS protein expression” value ([3]; N9 cells, PMA 100 nM pretreatment 15 min, LPS 10 μg/mL, 24 hr) is reported as “superinduction” and the “iNOS protein expression in the absence of LPS” value ([3]; N9 cells, PMA 100 nM, no LPS) is reported as “did not induce”. The LPS-mediated nitrite formation ([2]; PMA 100 nM pretreatment 15 min, LPS 10 μg/mL, 48 hr) was “superinduction”, the PKCδ protein level [4] was “effectively depleted” and the “LPS-induced ERK-1/2 phosphorylation” value [5] was “failed to induce”.

— patent US7531575B2, “Method of modulating cellular activity and agents useful for same” (Eberhard-Karls-Universität Tübingin, priority 2002, dated 2009)
